The numbers were not newly measured in paper PMC7481482, “Development of Anthraquinone Derivatives as Ectonucleoside Triphosphate Diphosphohydrolase (NTPDase) Inhibitors With Selectivity for NTPDase2 and NTPDase3” (Frontiers in Pharmacology, 2020), which cites them from elsewhere.

This data set addresses NTPDase1. Details: method as in Lecka et al., 2013. The settings on record: ref Lecka et al., 2013; cited from earlier work.

For the compound `CCCCSc1nc2c(N)ncnc2n1[C@@H]1O[C@H](COP(=O)(O)OP(=O)(O)OP(=O)(O)O)[C@@H](O)[C@H]1O` [8-BuS-ATP], the inhibition constant Ki is 800 nM.

A word on the Ki: it is a measure of affinity in units of concentration, obtained from inhibition or displacement.
